Source: patent US20250304620A1, “ANTIMICROBIAL PEPTIDE AND APPLICATION THEREOF” (priority 2023, published 2025)
Values after ≈ are worked out from the molar mass of the structure shown. Marks after values point to notes of the source that are not given here. Non-standard residues stand in square brackets, D forms with d. Residues, ends and D or L forms follow the SMILES beside them. d2Nal = N[C@H](Cc1ccc2ccccc2c1)C(=O)O

Key:
[1] = system: Staphylococcus aureus (NRS 384); assay: microbe, parasite or virus in culture; format: cell-based; conditions: NRS 384
Procedure, shortened: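 CLSI broth microdilution with serial twofold dilutions gave MICs against S. aureus NRS 384, with 5 parallel replicates. Levofloxacin and the AMP Cbf-K16 served as positive controls.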

[2] = system: Bacillus subtilis ATCC 6633; format: cell-based
Procedure, shortened: (§1)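 Serial twofold peptide dilutions were set up in microdilution format per CLSI, MICs were read, and the procedure was repeated in 5 parallel runs.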

[3] = system: Candida albicans ATCC MYA-2876; format: cell-based
Procedure, shortened: as §1

[4] = system: Candida glabrata ATCC 15126; format: cell-based
Procedure, shortened: as §1

[5] = system: Candida krusei ATCC 6258; format: cell-based
Procedure, shortened: as §1

[6] = system: Candida tropicalis ATCC 750; format: cell-based
Procedure, shortened: as §1

[7] = system: Candida utilis ATCC 9950; format: cell-based
Procedure, shortened: as §1

[8] = system: Corynebacterium ATCC 7715; format: cell-based
Procedure, shortened: as §1

[9] = system: Enterococcus ATCC 29212; format: cell-based
Procedure, shortened: as §1

[10] = system: Escherichia coli ATCC 25922; format: cell-based
Procedure, shortened: as §1

[11] = system: Klebsiella pneumoniae ATCC 700603; format: cell-based
Procedure, shortened: as §1

[12] = system: Pseudomonas aeruginosa ATCC 27853; format: cell-based
Procedure, shortened: as §1

[13] = system: Salmonella typhimurium ATCC 14028; format: cell-based
Procedure, shortened: as §1

[14] = system: Serratia marcescens ATCC 29021; format: cell-based
Procedure, shortened: as §1

[15] = system: Staphylococcus aureus ATCC 25923; format: cell-based
Procedure, shortened: as §1

[16] = system: Trichophyton ATCC MYA-4438; format: cell-based
Procedure, shortened: as §1

[17] = system: Staphylococcus aureus (NRS 384); conditions: NRS 384, 3 h
Description: Trypsin (250 U/mg, pH=8.0) and AMPs (LV-1 to LV-30) were mixed in a ratio of 1:10 (w/w) and added to a reaction buffer (0.2 M sodium phosphate, 1 mM CaCl2), pH 7.5), and then incubated at 37° C. for 3 h.

[18] = system: Pseudomonas aeruginosa ATCC 27853; assay: Injectable formulations on mice infected with peritonitis; format: in vivo, ICR mice; conditions: 1 mg/kg via tail vein, twice a day for 3 days, n = 10
Procedure, shortened: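 ICR mice of both sexes (10 per group) infected intraperitoneally with 0.2 mL P. aeruginosa ATCC 27853 at 1×10^9 CFU/mL. Injectable formulations dosed by body weight via tail vein twice daily for 3 days; deaths and survival time recorded over 14 d.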

[19] = system: Escherichia coli ATCC 25922; assay: Oral formulations on mice with systemic bacterial infection; format: in vivo, ICR mice; conditions: 1 mg/kg gavage, three times a day for 7 days, n = 10
Procedure, shortened: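 ICR mice of both sexes, 10 per group, infected i.p. with 0.2 mL E. coli ATCC 25922 at 1×10^7 CFU/mL. Compounds gavaged by body weight immediately after infection, three times daily for 7 days; deaths and survival time recorded over 14 d observation.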

**Q.** What does the source list for `CC(=O)N[C@H](CCCNC(=N)N)C(=O)N[C@H](CCCNC(=N)N)C(=O)N[C@H](CC(C)C)C(=O)N[C@H](CC(C)C)C(=O)N[C@H](Cc1ccc2ccccc2c1)C(=O)N[C@H](CCCCN)C(=O)N[C@H](CC(C)C)C(=O)N[C@H](CCCCN)C(=O)N[C@H](Cc1ccc2ccccc2c1)C(=O)N[C@H](CCCCN)C(=O)N[C@H](CCCNC(=N)N)C(N)=O` [LV-24] (Ac-[dR][dR][dL][dL][d2Nal][dK][dL][dK][d2Nal][dK][dR]-NH2)?
**A.** MIC against Staphylococcus aureus (NRS 384) [1]: 1 µg/mL (≈ 0.607 µM); MIC Bacillus subtilis ATCC 6633 [2]: 2 µg/mL (≈ 1.21 µM); MIC Candida albicans ATCC MYA-2876 [3]: 8 µg/mL (≈ 4.86 µM); MIC Candida glabrata ATCC 15126 [4]: 4 µg/mL (≈ 2.43 µM); MIC Candida krusei ATCC 6258 [5]: 8 µg/mL (≈ 4.86 µM); MIC Candida tropicalis ATCC 750 [6]: 8 µg/mL (≈ 4.86 µM); MIC Candida utilis ATCC 9950 [7]: 8 µg/mL (≈ 4.86 µM); MIC Corynebacterium ATCC 7715 [8]: 4 µg/mL (≈ 2.43 µM); MIC Enterococcus ATCC 29212 [9]: 4 µg/mL (≈ 2.43 µM); MIC Escherichia coli ATCC 25922 [10]: 1 µg/mL (≈ 0.607 µM); MIC Klebsiella pneumoniae ATCC 700603 [11]: 4 µg/mL (≈ 2.43 µM); MIC Pseudomonas aeruginosa ATCC 27853 [12]: 2 µg/mL (≈ 1.21 µM); MIC Salmonella typhimurium ATCC 14028 [13]: 1 µg/mL (≈ 0.607 µM); MIC Serratia marcescens ATCC 29021 [14]: 2 µg/mL (≈ 1.21 µM); MIC Staphylococcus aureus ATCC 25923 [15]: 1 µg/mL (≈ 0.607 µM); MIC Trichophyton ATCC MYA-4438 [16]: 4 µg/mL (≈ 2.43 µM); Trypsin MIC [17]: 1 µg/mL; Number of mice that died on each day after infection: day 1 [18]: 1 Mouse; Number of mice that died on each day after infection: day 2 [18]: 2 Mouse; Number of mice that died on each day after infection: day 3 [18]: 0 Mouse; Number of mice that died on each day after infection: day 4 [18]: 0 Mouse; Number of mice that died on each day after infection: day 5 [18]: 1 Mouse; Average survival times (Days) ([18]; observed for 14 d): 9.4*** Days; Number of mice that died on each day after infection: day 4 [19]: 1 Mouse; Number of mice that died on each day after infection: day 5 [19]: 1 Mouse; Number of mice that died on each day after infection: day 6 [19]: 0 Mouse; Number of mice that died on each day after infection: day 7 [19]: 2 Mouse; Number of mice that died on each day after infection: day 8 [19]: 1 Mouse; Average survival times (Days) ([19]; observed for 14 d): 10.1*** Days
